# According to PubChem BioAssay (NCI):
#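 Assay format: 96-well plates, 48-hour exposure. Here, GI50 denotes the concentration required for 50% inhibition of growth. The concentration for full growth arrest is given as TGI.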
# Key:
# P388 leukemia = experiment: NCI tumour cell line growth inhibition, 48 h
# P388/ADR leukemia = experiment: NCI tumour cell line growth inhibition, 48 h
structure (smiles),measurement,setting,value
O=C(O)c1ccc(C(=O)O)c(C(=O)O)c1.[NH-]C1CCCCC1[NH-].[Pt+2],GI50,P388 leukemia,262 nM
same,TGI,P388 leukemia,14600 nM
same,GI50,P388/ADR leukemia,2150 nM
same,TGI,P388/ADR leukemia,> 100000 nM
